These results are taken from patent US20240002326A1, “COMPOUNDS AND USE THEREOF IN METHODS OF TREATMENT” (The University of Queensland, priority 2016, published 2024).

Data set [1] relates to 4T1.2 mammary carcinoma cells. The data set can be described thus: 4T1.2 mammary carcinoma mouse model of breast cancer metastasis. The class given is in vivo, BALB/c mice. Conditions: 25 mg/kg/day oral, day 3 to day 12.
Another data set concerns the target full-length mouse SOX18 (Mus musculus (Mouse), UniProt P43680). The data set can be described thus: FP DNA-binding competition assay, full-length SOX18. The conditions noted are these: full-length mouse SOX18, Prox1-DNA probe, read-out: FP IC50 ± SD. On the procedure: Full-length mouse SOX18. A N-terminally tagged mouse HIS-GST-SOX18 was recombinantly expressed in Sf9 cells, purified on GST resin (GE Healthcare Life Sciences, Sweden) and eluted in Tris buffer (50 mM Tris, 500 mM NaCl, 10 mM reduced glutathione, pH 8.0). cDNA clone of mouse Sox18 was PCR amplified and cloned into the pOPIN-GST vector, to generate N-terminally tagged HIS-GST-SOX18. A sequence verified construct was co-transfected with flashBACULTRA (Oxford Expression Technologies, Oxford, United Kingdom) baculovirus DNA onto Spodoptera frugiperda Sf9 cells to obtain recombinantly expressed HIS-GST-SOX18. High Five cells (BTI-TN-5B1-4) in Sf-900™ II serum-free medium were infected at cell density of 1.5×10^6 cells/mL with a multiplicity of infection (MOI) of 5 PFU/cell, and incubated at 21° C. for 144 h before harvest. The cell pellet from 100 mL of expression culture was resuspended in 30 mL of phosphate lysis buffer (50 mM sodium phosphate, 500 mM sodium chloride, 1% Triton X-100, 2 mM magnesium chloride, one tablet of cOmplete Protease Inhibitor Cocktail, pH 7.5) and sonicated on ice for 20 s. The cell lysate was centrifuged at 17,000×g for 40 min at 4° C. Supernatant was incubated with Benzonase Nuclease (Merck Millipore) for 1 h at room temperature for DNA degradation, before being mixed with 500 μL GST resin (GE Healthcare Life Sciences, Sweden) and incubated on a rotating wheel at room temperature for 1 h. The sample was centrifuged at 500×g for 1 min to remove unbound protein in the supernatant. The resin was further washed with 50 resin volumes (RV) wash buffer (50 mM sodium phosphate, 500 mM NaCl, pH 7.5), with unbound protein removed by centrifugation as above. Bound protein was eluted from the resin with 3×1 RV elution buffer (50 mM Tris, 500 mM NaCl, 10 mM reduced glutathione, pH 8.0), collecting the supernatant by centrifugation as above.
The DNA-binding competition assay was performed in black 384-well plates, with mouse full length SOX18, or SOX-HMG fragments. All experiments were performed using a fluorescently-labelled Prox1-DNA element. Controls consisted of free labelled DNA (low FP milli-Polarization index, mP), labelled DNA in presence of protein (negative control, high mP), and labelled DNA and protein in presence of competing excess of unlabelled DNA (positive control, low mP)
The DNA-binding competition assay was performed in 25 uL, in black 384-well plates, using either 30 mM HEPES (N-2-Hydroxyethylpiperazine-N′-2-Ethanesulfonic Acid) (pH 7.5, with 100 mM KCl, 40 mM NaCl, 10 mM NH4OAc, […], 2 mM MgCl2, 0.5 mM EDTA, 0.01% NP-40) for mouse full length SOX18, or Tris-NaCl (10 mM Tris pH 8.0 and 100 mM NaCl) for SOX-HMG fragments. All experiments were performed using a 40 bp double-stranded Prox1-DNA element with 5′ fluorescein amidite (FAM) label (Sigma Proligo or InVitrogen). Optimum binding levels were obtained at 200 nM of mouse full length SOX18 and 60 nM of SOX-HMG fragment, in presence of 5 nM labelled DNA. Controls consisted of free labelled DNA (low FP milli-Polarization index, mP), labelled DNA in presence of protein (negative control, high mP), and labelled DNA and protein in presence of 400 time competing excess of unlabelled DNA (positive control, low mP). Depending on compound, final DMSO concentrations ranged from 2 to 3.33% v/v. After mixing protein, DNA probe and compound, plates were sealed and briskly agitated in the dark for 5 minutes at room temperature, 10 minutes at 37° C., and 30 minutes at room temperature, before reading fluorescence polarization on a Tecan M1000Pro (λexc=485 nm, λem=525 nm). All experiments were performed in triplicates.

The nature of data set [2]: Cytotoxicity assay (Alamar blue), COS-7. The class given is cell-based, Monkey. Conditions: chlorocebus aethiops, COS-7 cells; COS7, 24 h; read-out: In vitro cytotoxicity CC50 ± SD COS7. The protocol:
Cell toxicity was determined using Alamar blue, as previously described (McMillian et al., 2002). COS-7 cells were seeded as 7000 cells per well in black wall clear bottom 96-well plates in DMEM medium (Life Technologies Australia) with 10% FBS. HepG2 and HEK293 cell lines, from ATCC, were seeded as 5000 cells per well in black wall clear bottom 384-well cell culture plates in DMEM with 1% FBS. Cells were cultured for 24 h at 37° C., 5% CO2. A serial dilution of compounds was added, with a final DMSO concentration adjusted to 0.5% v/v. Cells were incubated for another 24 h. 1 Triton X-100 was used as negative control, and 0.5% DMSO as positive control. 5 μM Alamar blue was added to each well and fluorescence was measured (λexc=560 nm, λem=590 nm) after 2 h incubation at 37° C. Data were analysed using Prism software.

A further data set concerns the target SOX18 (Mus musculus (Mouse), UniProt P43680). The data set can be described thus: Cell-based luciferase SOX18-dependent transactivation (Vcam1 promoter) in COS-7. The conditions noted are these: COS7, 24 h, read-out: In vitro efficacy in cell IC50 ± SD COS7 (Luc). On the procedure: Monkey kidney fibroblast-like cells (COS-7) were cultured at 37° C., 5% CO2 in DMEM (Life technologies, 11995) with FBS, sodium pyruvate, L-glutamine, penicillin, streptomycin, non-essential amino acids and HEPES. Cells were grown in 96-well plates to 80% confluency, and transfected with mouse plasmids pGL2 Vcam 1 promoter construct (VC1889) and pSG5 Sox18, using X-tremeGENE 9 DNA transfection reagent (Roche, 06365787001) (Hosking et al., 2004, Duong et al., 2014). After 4-6 h transfection, cells were incubated with compounds in 0.5% FBS medium for another 24 h, before lysis and luciferase assay (Perkin Elmer, 6016711).

full-length mouse SOX18, sequence (P43680 whole entry): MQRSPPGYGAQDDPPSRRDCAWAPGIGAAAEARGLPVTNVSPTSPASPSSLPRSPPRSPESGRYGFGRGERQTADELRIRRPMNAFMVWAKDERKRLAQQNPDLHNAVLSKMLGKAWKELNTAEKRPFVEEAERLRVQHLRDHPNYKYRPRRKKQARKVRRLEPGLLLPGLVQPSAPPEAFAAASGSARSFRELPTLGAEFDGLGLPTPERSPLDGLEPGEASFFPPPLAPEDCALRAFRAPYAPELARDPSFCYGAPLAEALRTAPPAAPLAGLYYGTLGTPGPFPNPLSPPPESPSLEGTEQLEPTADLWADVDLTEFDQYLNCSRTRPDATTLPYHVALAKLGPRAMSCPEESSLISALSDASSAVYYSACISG
SOX18, sequence (P43680 whole entry): as above

Take `CC(=O)Oc1ccccc1C(=O)O` [Aspirin]: the “median latency (survival)” value in data set [1] stood at 34 days.

With `Cc1ccc(Cl)c(Nc2ccccc2C(=O)O)c1Cl` [Meclofenamic acid, reference compound], the IC50 at full-length mouse SOX18 came out at 163 ± 17.7 µM. The CC50 at 24 h in data set [2] was 16 ± 0.3 µM.

For the compound `O=C(O)c1cccnc1Nc1cccc(C(F)(F)F)c1` [Nifumic acid, niflumic acid, reference compound], the results for the concentration for half-maximal inhibition (IC50) at full-length mouse SOX18 and on SOX18 were 375 ± 84 µM and 50.5 ± 7.6 µM, respectively. Besides, the CC50 at 24 h in data set [2] was above 200 µM.
